Assay results reported in PubChem BioAssay AID330 (DTP/NCI, 2004).
Values joined by “and” are separate entries in the source; they are usually repeats but may differ in a detail not shown here. Equal entries are not always repeated. Inconclusive results and toxic doses are left out.

System: P388 leukemia ip, CD2F1 mice, survival T/C
Assay: NCI In Vivo Anticancer Drug Screen. Data for tumor model P388 Leukemia (intraperitoneal) in CD2F1 (CDF1) mice
Details: endpoint: median survival time, higher = longer survival
In short: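 Mice carrying the transplanted tumor received test compound or vehicle. Survival was recorded in each group, and the value is the treated-group measurement divided by that of the vehicle-treated control group.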

[1] = dose: 100.0 mg/kg/injection, schedule: Q04DX003 (ip), vehicle: Klucel (hydroxypropylcellulose) (HPC)
[2] = dose: 200.0 mg/kg/injection, schedule: Q04DX003 (ip), vehicle: Klucel (hydroxypropylcellulose) (HPC)
[3] = dose: 400.0 mg/kg/injection, schedule: Q04DX003 (ip), vehicle: Klucel (hydroxypropylcellulose) (HPC)
[4] = dose: 100.0 mg/kg/injection, schedule: Q01DX001 (ip), vehicle: Klucel (hydroxypropylcellulose) (HPC)
[5] = dose: 200.0 mg/kg/injection, schedule: Q01DX001 (ip), vehicle: Klucel (hydroxypropylcellulose) (HPC)
[6] = dose: 400.0 mg/kg/injection, schedule: Q01DX001 (ip), vehicle: Klucel (hydroxypropylcellulose) (HPC)

CC(=O)C1(O)Cc2c(O)c3c(c(O)c2C(OC2CC(N)C(O)C(C)O2)C1)C(=O)c1ccccc1C3=O (stereo not drawn)
T/C (dose: 0.03 mg/kg/injection, schedule: Q01DX009 (ip), vehicle: water): 116 % of control
T/C (dose: 0.1 mg/kg/injection, schedule: Q01DX009 (ip), vehicle: water): 150 % of control and 155 % of control and 158 % of control
T/C (dose: 0.12 mg/kg/injection, schedule: Q01DX005 (ip), vehicle: water): 151 % of control
T/C (dose: 0.15 mg/kg/injection, schedule: Q04DX003 (ip), vehicle: water): 106 % of control
T/C (dose: 0.2 mg/kg/injection, schedule: Q01DX009 (ip), vehicle: water): 167 % of control and 171 % of control and 183 % of control
T/C (dose: 0.21 mg/kg/injection, schedule: Q04DX003 (ip), vehicle: water): 166 % of control
T/C (dose: 0.25 mg/kg/injection, schedule: Q01DX005 (ip), vehicle: water): 164 % of control
T/C (dose: 0.3 mg/kg/injection, schedule: Q04DX003 (ip), vehicle: water): 114 % of control
T/C (dose: 0.36 mg/kg/injection, schedule: Q04DX003 (ip), vehicle: water): 170 % of control
T/C (dose: 0.39 mg/kg/injection, schedule: Q01DX009 (ip), vehicle: water): 170 % of control
T/C (dose: 0.4 mg/kg/injection, schedule: Q01DX009 (ip), vehicle: water): 205 % of control
T/C (dose: 0.5 mg/kg/injection, schedule: Q01DX005 (ip), vehicle: water): 180 % of control
T/C (dose: 0.5 mg/kg/injection, schedule: Q01DX005 (oral), vehicle: water): 104 % of control
T/C (dose: 0.6 mg/kg/injection, schedule: Q04DX003 (ip), vehicle: water): 118 % of control
T/C (dose: 0.78 mg/kg/injection, schedule: Q01DX009 (ip), vehicle: water): 173 % of control
T/C (dose: 1.0 mg/kg/injection, schedule: Q01DX005 (ip), vehicle: water): 114 % of control
T/C (dose: 1.0 mg/kg/injection, schedule: Q01DX005 (oral), vehicle: water): 107 % of control
T/C (dose: 1.3 mg/kg/injection, schedule: Q01DX001 (ip), vehicle: water): 97 % of control
T/C (dose: 1.8 mg/kg/injection, schedule: Q01DX001 (ip), vehicle: water): 97 % of control
T/C (dose: 2.0 mg/kg/injection, schedule: Q01DX005 (oral), vehicle: water): 112 % of control
T/C (dose: 2.4 mg/kg/injection, schedule: Q04DX003 (ip), vehicle: water): 152 % of control and 174 % of control
T/C (dose: 4.0 mg/kg/injection, schedule: Q01DX005 (oral), vehicle: water): 152 % of control
T/C (dose: 4.8 mg/kg/injection, schedule: Q04DX003 (ip), vehicle: water): 102 % of control and 106 % of control
T/C (dose: 8.0 mg/kg/injection, schedule: Q01DX005 (oral), vehicle: water): 107 % of control
T/C (dose: 9.6 mg/kg/injection, schedule: Q04DX003 (ip), vehicle: water): 96 % of control

CCCC(=O)NC
T/C (dose: 25.0 mg/kg/injection, schedule: Q01DX005 (ip), vehicle: saline): 102 % of control
T/C (dose: 50.0 mg/kg/injection, schedule: Q01DX005 (ip), vehicle: saline): 99 % of control
T/C (dose: 100.0 mg/kg/injection, schedule: Q01DX005 (ip), vehicle: saline): 110 % of control
T/C (dose: 200.0 mg/kg/injection, schedule: Q01DX005 (ip), vehicle: saline): 104 % of control
T/C (dose: 400.0 mg/kg/injection, schedule: Q01DX005 (ip), vehicle: saline): 99 % of control

COC(=O)/C=C/c1oc(=O)c(CO)c(OC)c1CO
T/C (dose: 20.0 mg/kg/injection, schedule: Q01DX009 (ip), vehicle: Klucel (hydroxypropylcellulose) (HPC)): 119 % of control
T/C (dose: 40.0 mg/kg/injection, schedule: Q01DX009 (ip), vehicle: Klucel (hydroxypropylcellulose) (HPC)): 119 % of control
T/C (dose: 80.0 mg/kg/injection, schedule: Q01DX009 (ip), vehicle: Klucel (hydroxypropylcellulose) (HPC)): 111 % of control

Clc1cc(Cl)c2n[se]nc2n1
T/C (dose: 25.0 mg/kg/injection, schedule: Q04DX002 (ip), vehicle: saline): 100 % of control
T/C (dose: 50.0 mg/kg/injection, schedule: Q04DX002 (ip), vehicle: saline): 106 % of control
T/C (dose: 100.0 mg/kg/injection, schedule: Q04DX002 (ip), vehicle: saline): 116 % of control and 123 % of control

O=C1c2c(Cl)ccc([N+](=O)[O-])c2C(=O)c2c(Cl)ccc([N+](=O)[O-])c21
T/C (dose: 12.5 mg/kg/injection, schedule: Q01DX005 (ip), vehicle: Klucel (hydroxypropylcellulose) (HPC)): 106 % of control
T/C (dose: 25.0 mg/kg/injection, schedule: Q01DX005 (ip), vehicle: Klucel (hydroxypropylcellulose) (HPC)): 104 % of control
T/C (dose: 50.0 mg/kg/injection, schedule: Q01DX005 (ip), vehicle: Klucel (hydroxypropylcellulose) (HPC)): 99 % of control and 104 % of control
T/C (dose: 100.0 mg/kg/injection, schedule: Q01DX005 (ip), vehicle: Klucel (hydroxypropylcellulose) (HPC)): 94 % of control
T/C (dose: 200.0 mg/kg/injection, schedule: Q01DX005 (ip), vehicle: Klucel (hydroxypropylcellulose) (HPC)): 94 % of control

O=C1c2ccccc2C(=O)c2c(NCCO)ccc(NCCO)c21
T/C (dose: 25.0 mg/kg/injection, schedule: Q04DX002 (ip), vehicle: saline with Tween-80): 96 % of control
T/C (dose: 50.0 mg/kg/injection, schedule: Q04DX002 (ip), vehicle: saline with Tween-80): 91 % of control
T/C (dose: 100.0 mg/kg/injection, schedule: Q04DX002 (ip), vehicle: saline with Tween-80): 95 % of control
T/C (dose: 200.0 mg/kg/injection, schedule: Q04DX002 (ip), vehicle: saline with Tween-80): 90 % of control

O=c1[nH]cc(F)c(=O)[nH]1.[Tl]
T/C (dose: 0.78 mg/kg/injection, schedule: Q01DX009 (ip), vehicle: Klucel (hydroxypropylcellulose) (HPC)): 99 % of control
T/C (dose: 1.56 mg/kg/injection, schedule: Q01DX009 (ip), vehicle: Klucel (hydroxypropylcellulose) (HPC)): 103 % of control
T/C (dose: 3.13 mg/kg/injection, schedule: Q01DX009 (ip), vehicle: Klucel (hydroxypropylcellulose) (HPC)): 115 % of control

ClC(Cl)(Cl)Cl
T/C (dose: 0.37 % in 0.5 ml injection vol, schedule: Q01DX009 (ip), vehicle: water): 103 % of control
T/C (dose: 0.75 % in 0.5 ml injection vol, schedule: Q01DX009 (ip), vehicle: water): 103 % of control
T/C (dose: 1.5 % in 0.5 ml injection vol, schedule: Q01DX009 (ip), vehicle: water): 104 % of control

C=CCSc1nc2ccc(NCn3c(=S)sc4ccccc43)cc2s1
T/C [1]: 89 % of control
T/C [2]: 89 % of control
T/C [3]: 89 % of control

c1cncc(C(Nc2cccc3cccnc23)Nc2cccc3cccnc23)c1
T/C (dose: 60.0 mg/kg/injection, schedule: Q01DX005 (ip), vehicle: saline with Tween-80): 94 % of control
T/C (dose: 120.0 mg/kg/injection, schedule: Q01DX005 (ip), vehicle: saline with Tween-80): 91 % of control
T/C (dose: 240.0 mg/kg/injection, schedule: Q01DX005 (ip), vehicle: saline with Tween-80): 90 % of control

COc1ccc([N+](=O)[O-])cc1NOC(C)=O
T/C [1]: 111 % of control
T/C [2]: 119 % of control
T/C [3]: 94 % of control

C=C1C(=O)OC2C=C(CCC(C)=O)C(C)C(OC(C)=O)CC12 (stereo not drawn)
T/C (dose: 25.0 mg/kg/injection, schedule: Q01DX009 (ip), vehicle: Klucel (hydroxypropylcellulose) (HPC)): 100 % of control
T/C (dose: 50.0 mg/kg/injection, schedule: Q01DX009 (ip), vehicle: Klucel (hydroxypropylcellulose) (HPC)): 102 % of control
T/C (dose: 100.0 mg/kg/injection, schedule: Q01DX009 (ip), vehicle: Klucel (hydroxypropylcellulose) (HPC)): 94 % of control
T/C (dose: 200.0 mg/kg/injection, schedule: Q01DX009 (ip), vehicle: Klucel (hydroxypropylcellulose) (HPC)): 94 % of control

[O-]c1c(Cl)c(Cl)c(O[P+](c2ccccc2)(c2ccccc2)c2ccccc2)c(Cl)c1Cl
T/C (dose: 6.25 mg/kg/injection, schedule: Q01DX009 (ip), vehicle: saline): 108 % of control and 96 % of control
T/C (dose: 12.5 mg/kg/injection, schedule: Q01DX009 (ip), vehicle: saline): 113 % of control and 97 % of control
T/C (dose: 25.0 mg/kg/injection, schedule: Q01DX009 (ip), vehicle: saline): 108 % of control and 114 % of control and 92 % of control
T/C (dose: 50.0 mg/kg/injection, schedule: Q01DX009 (ip), vehicle: saline): 113 % of control

C=C1CCC2(O)C(=C)C(=O)OC2C2C(=C)CCC12 (stereo not drawn)
T/C (dose: 4.0 mg/kg/injection, schedule: Q01DX009 (ip), vehicle: Klucel (hydroxypropylcellulose) (HPC)): 96 % of control
T/C (dose: 8.0 mg/kg/injection, schedule: Q01DX009 (ip), vehicle: Klucel (hydroxypropylcellulose) (HPC)): 100 % of control
T/C (dose: 16.0 mg/kg/injection, schedule: Q01DX009 (ip), vehicle: Klucel (hydroxypropylcellulose) (HPC)): 102 % of control
T/C (dose: 32.0 mg/kg/injection, schedule: Q01DX009 (ip), vehicle: Klucel (hydroxypropylcellulose) (HPC)): 110 % of control

c1ccc(C2=C(c3ccccc3)C3SC4CCCC3C4(N3CCOCC3)S2)cc1 (stereo not drawn)
T/C [4]: 95 % of control
T/C [5]: 99 % of control
T/C [6]: 93 % of control

CC(=O)NNc1cccc(Cl)n1
T/C [4]: 98 % of control
T/C [5]: 96 % of control
T/C [6]: 97 % of control
